Values belong to the compound of their own block, whether it stands above or below them.
Key:
[1] = Plasma concentration-time profile (AUC) after oral dosing to dogs; type: in vivo, beagle dogs; details: for AUC: beagle, dog, plasma, gelcaps
Description: The plasma concentration-time profiles for racemic zileuton and (R)-zileuton were evaluated in beagle dogs dosed orally with either 10 mg/kg racemic zileuton or 5 mg/kg (R)-zileuton in gelcaps. Following oral dosing blood samples were collected from the test animals into sodium-EDTA anticoagulant tubes at selected time points up to 48 hours post-dose, processed into plasma and analysed by an LC-MS/MS method for zileuton concentration. The LC-MS/MS method utilized a 0.1% trifluoroacetic in water and methanol gradient HPLC system (initial 45:55 to 10:90% over 4 minutes with a Zorbax SB-C18 4.6×30 mm column at a flow rate of 1.5 mL/min). The retention time of zileuton was 2.0 minutes. A stable labeled version of zileuton was used to internally standardize the analysis. Mass spectrometer analysis by electrospray ionization of the HPLC eluent was performed in SRM mode (ESI 3.5 kV; tube lens voltage 71.0; capillary offset 40.3; L11-24.3; capillary temperature 350° C.; dwell 100 msec; collision energy 15 eV). Plasma concentrations of zileuton in the test samples were estimated by interpolation of sample peak area/height data from a standard concentration-peak area/height plot. The area under the plasma concentration-time (AUC) was calculated by non-compartmental pharmacokinetic analysis (WinNonlin, Pharsight, Mountain View, Calif.) using the trapezoidal rule.

[2] = tested on: LTB4 production in canine whole blood; experiment: Ex vivo inhibition of A23187-stimulated LTB4 production in canine whole blood after oral dosing; details: Canis lupus familiaris, dogs; for inhibition at 10 mg/kg: 10 mg/kg oral; for inhibition at 5 mg/kg: 5 mg/kg oral
Description: To determine the pharmacodynamics of racemic and (R)-zileuton, ex vivo, in fresh canine whole blood, a 0.5 ml aliquot was removed from each pharmacokinetic sample of the study. Each 0.5 ml aliquot of blood was placed into an individually-labeled, 1.5 ml polypropylene tube. Five (5) μl of a 5 mM calcium ionophore A23187 solution (in DMSO) was added to each sample and mixed for 10 seconds on a vortex. Final concentration of A23187 in whole blood was 50 μM (final DMSO concentration was 1%). After mixing, each sample was placed into a 37° C. circulating water bath and allowed to incubate for 30 minutes. […] After incubation, each sample was removed from the water bath and immediately placed onto wet ice for 2 minutes. The samples were removed from the ice after 2 minutes and immediately centrifuged in an Eppendorf Microfuge (VWR Scientific, USA) at 14,000 rpm for 2 minutes at ambient room temperature. After centrifugation, the supernatant (plasma) was collected, diluted into EIA buffer (1M phosphate buffer, pH 7.4) then stored at −80° C. until assay. The level of LTB4 was analyzed by enzyme immunoassay (Cayman Chemical Co., Ann Arbor, Mich.).

[3] = tested on: LTB4 production in human whole blood; experiment: Human whole blood assay of LTB4 inhibition; type: cell-based; details: for IC50: A23187 50 μM
Description: The potency of racemic and (R)-zileuton was assessed in fresh human whole blood essentially by the methods of Carter et al., J. Pharm. Exp. Ther. 1991: 256:929. Briefly, 0.5.ml of heparinized (20 USP U/ml) human blood from each donor was incubated with vehicle (DMSO), or various concentrations of racemic zileuton, (R)-zileuton or (S)-zileuton (prepared in DMSO) for fifteen minutes at 37° C. Eicosanoid biosynthesis was initiated by the addition of calcium ionophore A23187 in DMSO to a final concentration of 50 μM (final DMSO concentration of 1%). Samples were incubated for an additional 30 minutes at 37° C. in the presence of A23187. The reaction was terminated by cooling in an ice bath for 2 minutes followed by centrifugation. The plasma was then salvaged to an EIA buffer (1M phosphate buffer, pH 7.4) then stored at −80° C. until assay. The level of LTB4 was analyzed by enzyme immunoassay.

[4] = tested on: cellular infiltration of airways; experiment: Murine model of allergic lung inflammation, ovalbumin challenge, BAL 24 h after final challenge (Example 4); type: in vivo, BALB/c mice; details: oral
Description: Male, BALB/c mice were sensitized intraperitoneally (i.p.) with ovalbumin (10 μg) on days 1 and 14. To provoke an allergic lung inflammatory response, the mice received three intransal (i.n.) challenges with ovalbumin (100 μg) (or saline for sham) on days 29, 30 and 31. After sensitization period, animals were treated orally 30 minutes prior to ovalbumin challenge on days 29, 30 and 31 according to the following regimes: racemic Zileuton (10 mg/kg, four times daily (qid)), Montelukast (0.17 mg/kg, once daily (qd)), Dexamethasone (4 mg/kg, once daily (qd)). Twenty-four hours following the final challenge (n=16 per group, pool of two separate studies), animals were sacrificed and bronchoalveolar lavage (BAL) was performed. Infiltration of airways by inflammatory cells was quantified by cytospin, microscopy and/or flow cytometry. The dose levels and frequencies of zileuton and montelukast were chosen to approximate the human clinical use. Zileuton, Montelukast and Dexamethasone were compared to their respective “qid” and “qd” controls.

[5] = tested on: infiltration of inflammatory cells to the airways; experiment: Mouse model of asthma, ovalbumin challenge, BAL 8 h after final challenge (Example 5); type: in vivo, BALB/c mice; details: for inhibition of eosinophils in BAL fluid / inhibition of neutrophil infiltration in BAL fluid / inhibition of the increase in total cellularity of BAL fluid: 4 mg/kg; for efficacy compared with racemic zileuton or S(−) zileuton: 2 or 4 mg/kg oral once a day
Description: Male BALB/c mice were obtained from Taconic Labs (Taconic, N.Y.) and maintained on an OVA-free (ovalbumin-free) diet. After equilibration of at least 5 days, animals were sensitized to OVA and then challenged by the following procedure. On days 1 and 14, sensitization was performed by intraperitoneal (ip) injections of 10 μg OVA emulsified in 2 mg Al(OH)3 (aluminum hydroxide (Aldrox)) in a volume of […]. On days 29, 30 and 31, allergen challenge was performed via intranasal instillation of 20 μL (10 μL/nare) of OVA (1 mg/mL) under light isoflurane anesthesia.
The background control group received no sensitization and no challenge. The sham control group underwent the OVA sensitization procedure, but was challenged with PBS. The vehicle control group was used to determine the maximal response level achievable.
Animals were given Zileuton (at 2 or 4 mg/kg, by mouth (po), once daily (qd)) or (orally) 30 minutes prior to each ovalbumin challenge. Eight hours after the final ovalbumin challenge, animals were sacrificed and bronchoalveolar lavage (BAL) was performed. A tracheal tube was inserted into the trachea and the lungs were lavaged 2 times with pyrogen-free, sterile, PBS containing 0.01% EDTA and 0.05% BSA (Bovine serum albumin). Lavage fluid, maintained at room temperature, was slowly injected into the lungs; lungs were manually massaged to distribute fluid for 30 seconds, bronchoalveolar lavage fluid (BALF) was slowly withdrawn and salvaged to individually-labeled, sterile, polypropylene tubes. The procedure was repeated 2 times/animal and the lavage fluids were pooled. The magnitude of the infiltration of inflammatory cells to the airways was determined by flow cytometry.

SMILES: CC(c1cc2ccccc2s1)N(O)C(N)=O (racemic) [racemic zileuton, (±)-1-(1-Benzo[b]thien-2-ylethyl)-1-hydroxyurea]
AUC ([1]; 10 mg/kg po): 87000 ng·h/mL | inhibition at 10 mg/kg ([2]; 36 hours after administration): ~84% | inhibition at 10 mg/kg ([2]; time points between 30 minutes and 24 hours after administration): 100% | IC50 [3]: 745 nM | % Inhibition Eosinophils ([4]; 10 mg/kg, qid): 99.2 ± 0.02% | % Inhibition Neutrophils ([4]; 10 mg/kg, qid): 87.9 ± 2.3% | % Inhibition Total cells ([4]; 10 mg/kg, qid): 62.2 ± 1.7% | inhibition of eosinophils in BAL fluid ([5]; po, qd, versus vehicle control): 67% | inhibition of neutrophil infiltration in BAL fluid ([5]; po, qd, versus vehicle control): 54% | inhibition of the increase in total cellularity of BAL fluid ([5]; po, qd, versus vehicle control): 66%

share of the racemic zileuton AUC ([1]; FIG. 1): 58% | AUC ([1]; 5 mg/kg po): 52000 ng·h/mL | S(−) zileuton IC50/R(+) zileuton IC50 ratio [3]: 11.9 | IC50 [3]: 399 nM
SMILES: C[C@H](c1cc2ccccc2s1)N(O)C(N)=O [(R)-zileuton]
inhibition at 5 mg/kg ([2]; 36 hours after administration): ~74% | inhibition at 5 mg/kg ([2]; time points between 60 minutes and 24 hours after administration): > 91% | inhibition of the total cell infiltration ([5]; 2 mg/kg, po, qd, versus vehicle control): 66% | inhibition of eosinophils in BAL fluid ([5]; po, qd, versus vehicle control): 75% | inhibition of neutrophil infiltration in BAL fluid ([5]; po, qd, versus vehicle control): 65% | inhibition of the increase in total cellularity of BAL fluid ([5]; po, qd, versus vehicle control): 85% | efficacy compared with racemic zileuton or S(−) zileuton [5]: significantly greater efficacy than racemic zileuton | efficacy compared with racemic zileuton or S(−) zileuton ([5]; listed as R(+) zileuton): greater efficacy

IC50 [3]: 4770 nM
SMILES: C[C@@H](c1cc2ccccc2s1)N(O)C(N)=O [(S)-zileuton]
inhibition of eosinophils in BAL fluid ([5]; po, qd, versus vehicle control): 51% | inhibition of neutrophil infiltration in BAL fluid ([5]; po, qd, versus vehicle control): 35% | inhibition of the increase in total cellularity of BAL fluid ([5]; po, qd, versus vehicle control): not significantly effective

SMILES: C[C@@H]1C[C@H]2[C@@H]3CCC4=CC(=O)C=C[C@]4(C)[C@@]3(F)[C@@H](O)C[C@]2(C)[C@@]1(O)C(=O)CO [Dexamethasone]
% Inhibition Eosinophils ([4]; 4 mg/kg, qd): 99.2 ± 0.02% | % Inhibition Neutrophils ([4]; 4 mg/kg, qd): 90.5 ± 1.1% | % Inhibition Total cells ([4]; 4 mg/kg, qd): 62.5 ± 1.5%

SMILES: CC(C)(O)c1ccccc1CC[C@@H](SCC1(CC(=O)O)CC1)c1cccc(/C=C/c2ccc3ccc(Cl)cc3n2)c1 [Montelukast]
% Inhibition Eosinophils ([4]; 0.17 mg/kg, qd): 99.2 ± 0.02% | % Inhibition Neutrophils ([4]; 0.17 mg/kg, qd): 23.3 ± 6.6% | % Inhibition Total cells ([4]; 0.17 mg/kg, qd): 53.3 ± 6.5%
